Test results taken from the NIST ThermoML archive (doi:10.1016/j.fluid.2005.11.015).
± gives the expanded uncertainty stated by the source.

Settings: Crystal; visual observation

Normal melting temperature: 67.0 ± 2 °C
Structure (SMILES): CCCCn1cc[n+](C)c1.[Cl-] [1-butyl-3-methylimidazolium chloride]
